Tests used:
[1] = tested on: cryopreserved hepatocytes from dog; assay: Metabolism of compounds in hepatocyte suspensions (prodrug hydrolysis), dog; format: in vitro ADME; conditions: prodrug 1 μM, dog hepatocytes 1×10^6 cells/mL, 37° C.
Method: (§1) Selected compounds of the present invention (1 μM) were incubated with suspensions of cryopreserved hepatocytes from rat, dog and human subjects at a cell density of 1×10^6 cells/mL. The samples were incubated for 0, 5, 15, 30, 60 and 90 minutes in a 95% humidified incubator at 37° C. with 5% CO2. At each time point, the samples were quenched with acetonitrile containing an appropriate internal standard. The samples were then vortex-mixed and centrifuged at ˜2,900×g for 30 minutes. The supernatants were transferred to clean plates and analyzed using LC-MS/MS. Following quantification of prodrug and parent in the samples, half lives of conversion (t1/2) were determined from the rates of prodrug degradation according to first-order kinetics. Conversion to active metabolite (compound 1a) was confirmed by following the formation of compound 1a.

[2] = Oral pharmacokinetics in Wistar-Hanover rats; format: in vivo, male Wistar-Hanover rats; conditions: plasma, rat; for bioavailability: oral, prodrug, from dose-adjusted IV and P.O. AUC ratios; for Tmax / AUC / Cmax / nAUC: oral gavage, prodrug measured; for AUC: read-out: AUC0-x hr
Method: (§2) Selected compounds of the present invention were administered in suitable vehicles to male Wistar-Hanover rats. Intravenous (IV) administration to rats was conducted via cannulas implanted in the jugular vein. For oral administration, test compounds were administered by gavage. Blood samples were serially collected following dose administration for up to 24 hr and plasma was separated by centrifugation. The concentration of test compound in rat plasma were determined by a LC-MS/MS assay following a protein precipitation step and addition of an appropriate internal standard. Quantification was done by determining peak area-ratios of the test compound and compound 1a (the metabolite of each of the test compounds) to the internal standard. Pharmacokinetic parameters were obtained using non-compartmental methods (Watson®). The area under the plasma concentration-time curve (AUC0-t) was calculated from the first time point (0 min) up to the last time point with measurable test compound concentration using the linear trapezoidal or linear/log-linear trapezoidal rule. The IV plasma clearance was calculated by dividing the dose by AUC0-inf. The terminal half-life of elimination was determined by unweighted linear regression analysis of the log-transformed data. The time points for determination of half-life were selected by visual inspection of the data. The volume of distribution at steady state (Vdss) was obtained from the product of plasma clearance and mean residence time (determined by dividing the area under the first moment curve by the area under the curve). The maximum plasma concentration (Cmax) and the time at which maximum concentration occurred (Tmax) were obtained by inspection of the plasma concentration-time data. Absolute oral bioavailability was determined from dose-adjusted IV and P.O. AUC ratios.

[3] = Dog pharmacokinetic study, oral dose; format: in vivo; set-up: AUC(0-t) / Tmax: dose or concentration left out as unconfirmed; conditions: male, plasma, fasted Beagle dogs, compound measured = prodrug dosed; for Cmax / AUC(0-t): mean ± SE; for AUC(0-t): read-out: AUC0-24 hr; for Tmax: median
Method: (§3) Six Male Beagle Dogs (Marshall Farms) weighing 9.0-11.6 kg were used for the studies. Studies were conducted under a protocol approved by the WP-IACUC (Animal Procedure Statement #09068544080285). […] Dosing was followed by 5 mL water rinse via oral gavage for oral dosing or with a post-dose water flush of the catheter for colonic dosing. Water was restricted for 1 hour post dose. Food was returned at 4 hours after dosing. Blood (1-mL) was drawn at pre-dose, 0.25, 0.5, 1, 2, 4, 6, 8 and 24 hours post-dosing. The plasma was separated by centrifugation (10 minutes at 2500 g) and kept frozen at −70° C. until analysis by LC-MS/MS.

[4] = tested on: cryopreserved hepatocytes from rat; assay: Metabolism of compounds in hepatocyte suspensions (prodrug hydrolysis), rat; format: in vitro ADME; conditions: prodrug 1 μM, rat hepatocytes 1×10^6 cells/mL, 37° C.
Method: as §1

[5] = Intravenous pharmacokinetics in Wistar-Hanover rats; format: in vivo, male Wistar-Hanover rats; conditions: rat, plasma; for half-life / AUC / Vd / clearance: male, Wistar-Hanover; for half-life / Vd / clearance: prodrug; for AUC / nAUC0-∞: prodrug measured; for AUC: read-out: AUC0-x; for Vd: read-out: Vdss; for clearance: read-out: Clp
Method: as §2

[6] = Dog pharmacokinetic study, colonic dose; format: in vivo, Male Beagle Dogs; set-up: AUC(0-t) / Tmax: dose or concentration left out as unconfirmed; conditions: for colonic absorption versus metabolite Compound 1a: Beagle dogs, colonic dosing, statement in words; for Cmax / AUC(0-t) / Tmax: male, dog, plasma, fasted Beagle dogs, Colonic, compound measured = prodrug dosed; for Cmax / AUC(0-t): mean ± SE; for AUC(0-t): read-out: AUC0-24 hr; for Tmax: median
Method: as §3

[7] = tested on: cryopreserved hepatocytes from human; assay: Metabolism of compounds in hepatocyte suspensions (prodrug hydrolysis), human; format: in vitro ADME; conditions: prodrug 1 μM, human hepatocytes 1×10^6 cells/mL, 37° C.
Method: as §1

[8] = male, Wistar-Hanover, read-out: Cmax

| SMILES | Remaining at 90 min, Dog [1] [%] | bioavailability ([2]; male, Wistar-Hanover) [%] | Tmax ([2]; male, Wistar-Hanover) [min] | AUC ([2]; male, Wistar-Hanover) [µM·h] | Cmax [2, 8] [nM] | nAUC [2] [µM·h] | Remaining at 90 min, Rat [4] [%] | Remaining at 90 min, Human [7] [%] | half-life [5] [min] | AUC [5] [µM·h] | nAUC0-∞ [5] [µM·h] | further results |
| --- | --- | --- | --- | --- | --- | --- | --- | --- | --- | --- | --- | --- |
| CCOC(=O)OC(C)Oc1c(C(=O)NCc2ccc(F)cc2)nc(C(C)(C)NC(=O)c2nnc(C)o2)n(C)c1=O (stereo not shown) [Compound 1] | 15.94 | 3 | 15 | 0.002 | 6 | 0.0004 | 30.30 | 19.32 | 9 | 0.012 | 0.012 | Cmax [3]: 212 ± 32 nM; AUC(0-t) [3]: 0.146 ± 0.033 µM·h; Tmax [3]: 18 min; colonic absorption versus metabolite Compound 1a [6]: significant increase in colonic absorption; Cmax [6]: 91 ± 25 nM; AUC(0-t) [6]: 0.083 ± 0.034 µM·h; Tmax [6]: 18 min |
| Cc1nnc(C(=O)NC(C)(C)c2nc(C(=O)NCc3ccc(F)cc3)c(OC(C)OC(=O)OC(C)C)c(=O)n2C)o1 (stereo not shown) [Compound 2] |  | 6.6 | 67.8 | 0.039 | 19 | 0.008 |  |  | 10.2 | 0.119 | 0.119 | Vd [5]: 2.17 L/kg; clearance [5]: 244 mL/min/kg |
| CCCCOC(=O)OC(C)Oc1c(C(=O)NCc2ccc(F)cc2)nc(C(C)(C)NC(=O)c2nnc(C)o2)n(C)c1=O (stereo not shown) [Compound 7] | 3.31 |  |  |  |  |  | 2.72 | 2.12 |  |  |  |  |
| Cc1nnc(C(=O)NC(C)(C)c2nc(C(=O)NCc3ccc(F)cc3)c(OCOC(=O)C(C)(C)C)c(=O)n2C)o1 [Compound 22] | 3.21 |  |  |  |  |  | 3.58 | 4.27 | 2.4 | 0.012 | 0.012 | Cmax [2]: BLQ; Cmax [3]: 8 ± 2 nM; AUC(0-t) [3]: 0.006 ± 0.002 µM·h; Tmax [3]: 30 min; colonic absorption versus metabolite Compound 1a [6]: significant increase in colonic absorption; Cmax [6]: 10 ± 3 nM; AUC(0-t) [6]: 0.014 ± 0.003 µM·h; Tmax [6]: 15 min |

Further lines, with some results ahead:

| Remaining at 90 min, Dog [1] [%] | bioavailability ([2]; male, Wistar-Hanover) [%] | Tmax ([2]; male, Wistar-Hanover) [min] | AUC ([2]; male, Wistar-Hanover) [µM·h] | Cmax [2, 8] [nM] | nAUC [2] [µM·h] | Remaining at 90 min, Rat [4] [%] | Remaining at 90 min, Human [7] [%] | SMILES | half-life [5] [min] | AUC [5] [µM·h] | nAUC0-∞ [5] [µM·h] | further results |
| --- | --- | --- | --- | --- | --- | --- | --- | --- | --- | --- | --- | --- |
| 5.97 |  |  |  |  |  | 38.75 | 14.81 | Cc1nnc(C(=O)NC(C)(C)c2nc(C(=O)NCc3ccc(F)cc3)c(OC(OC(=O)OC(C)C)C(C)C)c(=O)n2C)o1 (stereo not shown) [Compound 12] |  |  |  |  |
| 8.90 | 7 | 45 | 0.028 | 21 | 0.006 | 6.20 | 14.00 | CCOC(=O)OC(CC)Oc1c(C(=O)NCc2ccc(F)cc2)nc(C(C)(C)NC(=O)c2nnc(C)o2)n(C)c1=O (stereo not shown) [Compound 15] | 8.4 | 0.085 | 0.085 | Vd [5]: 3.48 L/kg; clearance [5]: 388 mL/min/kg |
| 1.70 |  |  |  |  |  | 0.60 | 1.80 | Cc1nnc(C(=O)NC(C)(C)c2nc(C(=O)NCc3ccc(F)cc3)c(OCOC(=O)OC(C)C)c(=O)n2C)o1 [Compound 20] |  |  |  |  |
| 8.14 |  |  |  |  |  | 50.65 | 28.06 | CC(=O)OC(Oc1c(C(=O)NCc2ccc(F)cc2)nc(C(C)(C)NC(=O)c2nnc(C)o2)n(C)c1=O)C(C)C (stereo not shown) [Compound 23] |  |  |  |  |
